Here are results for 3 compounds from ChEMBL document CHEMBL1142442, “Synthesis of chimeric tetrapeptide-linked cholic acid derivatives: impending synergistic agents” (Bioorg Med Chem Lett, 2008).

Data set [1] has as its system Staphylococcus aureus. The experiment in a line: Antibacterial activity at Staphylococcus aureus. It is filed as functional.
The test system of data set [2] is Yarrowia lipolytica. The experiment in a line: Antifungal activity at Yarrowia lipolytica. It is filed as functional.
For data set [3], the system named is Candida albicans. The experiment in a line: Antifungal activity at Candida albicans assessed as concentration required to lower the MIC of fluconazole from 32 to 1 ug/mL after 48 hrs. Type of data set: functional.
The test system of data set [4] is HEK293. The experiment in a line: Antiproliferative activity against HEK293 cells by MTT assay. It is filed as cell-based. The conditions noted are these: Homo sapiens.
The subject of data set [5] is Escherichia coli. The experiment in a line: Antibacterial activity at Escherichia coli. It is filed as functional.
For data set [6], the system named is MCF7. The experiment in a line: Antiproliferative activity against human MCF7 cells at upto 80 uM by MTT assay. It is filed as functional, cell-based.
The test system of data set [7] is HEK293. The experiment in a line: Antiproliferative activity against HEK293 cells at upto 80 uM by MTT assay. Type of data set: cell-based. The conditions noted are these: human.
The subject of data set [8] is Cryptococcus neoformans. The experiment in a line: Antifungal activity at Cryptococcus neoformans. It is filed as functional.
Data set [9] deals with Benjaminiella poitrasii. The experiment in a line: Antifungal activity at Benjaminiella poitrasii. It is filed as functional.
Data set [10] concerns MCF7. The experiment in a line: Antiproliferative activity against human MCF7 cells by MTT assay. It is filed as functional, cell-based.
Data set [11] deals with Candida albicans. The experiment in a line: Antifungal activity at Candida albicans. It is filed as functional.
Data set [12] relates to Escherichia coli. The experiment in a line: Antibacterial activity at Escherichia coli assessed as concentration required to lower the MIC of erythromycin from 64 to 1 ug/mL after 24 hrs. Type of data set: functional.
Data set [13] concerns Fusarium oxysporum. The experiment in a line: Antifungal activity at Fusarium oxysporum. It is filed as functional.

Molecules are shown by their SMILES. Converted amounts (≈) assume the structure as drawn. Some results are limits rather than exact numbers.

As usually defined, the MIC is the smallest concentration in the dilution series that meets the test's criterion for growth inhibition. As usually defined, the IC50 is the concentration needed to halve the response being measured. Turning to `C[C@H](CCC(=O)O)[C@H]1CC[C@H]2[C@@H]3[C@H](O)C[C@@H]4C[C@@H](NC(=O)CCNC(=O)CCNC(=O)CCNC(=O)CCN)CC[C@]4(C)[C@H]3C[C@H](O)[C@]12C`, the MIC in data set [1] was over 128 µg/mL; in data set [2], over 128 µg/mL; in data set [3] it was 1 µg/mL; in data set [5], 32 µg/mL (≈ 46.2 µM); in data set [8], over 128 µg/mL; in data set [9], 24 µg/mL (≈ 34.7 µM). In addition, the values for the MIC in data set [11], in data set [12] and in data set [13] were 32 µg/mL (≈ 46.2 µM), 4 µg/mL and 64 µg/mL (≈ 92.5 µM), respectively. For the same compound, the IC50 in [4] is over 1000 µM; in data set [10], 200 µM. In addition, the Activity result in data set [6] and in data set [7] was “Non-toxic” in each case.
`C[C@H](CCCO)[C@H]1CC[C@H]2[C@@H]3[C@H](O)C[C@@H]4C[C@@H](NC(=O)CCNC(=O)CCNC(=O)CCNC(=O)CCNC(=O)OC(C)(C)C)CC[C@]4(C)[C@H]3C[C@H](O)[C@]12C`: the MIC in [1] is over 128 µg/mL; in [2], over 128 µg/mL; in [3], 12 µg/mL; in data set [5], over 128 µg/mL; in data set [8], over 128 µg/mL; in [9], over 128 µg/mL. The results for the MIC in [11], in data set [12] and in [13] were 128 µg/mL (≈ 165 µM), 20 µg/mL and 64 µg/mL (≈ 82.3 µM), respectively. Moreover, the IC50 was 800 µM in data set [4] and over 1000 µM in [10]. The Activity result in data set [6] and in data set [7] was “Non-toxic” each time.
For the compound `CC(=O)OCCC[C@@H](C)[C@H]1CC[C@H]2[C@@H]3[C@H](OC(C)=O)C[C@@H]4C[C@@H](NC(=O)CNC(=O)CNC(=O)CNC(=O)CNC(=O)OC(C)(C)C)CC[C@]4(C)[C@H]3C[C@H](O)[C@]12C`, the MIC in [1] was over 128 µg/mL; in [2], over 128 µg/mL; in data set [3], 12 µg/mL; in data set [5], 64 µg/mL (≈ 79.4 µM); in data set [8], over 128 µg/mL; in [9] it was 32 µg/mL (≈ 39.7 µM). Further, the MIC in data set [11] is 64 µg/mL (≈ 79.4 µM); in data set [12], 24 µg/mL; in data set [13], 64 µg/mL (≈ 79.4 µM). The IC50 in [4] worked out at 200 µM; in data set [10], 500 µM. For the same compound, the Activity result in data set [6] and in data set [7] was “Non-toxic” each time.
